Test results taken from article PMC10341698, “Identification of Anti-Influenza A Compounds Inhibiting the Viral Non-Structural Protein 1 (NS1) Using a Type I Interferon-Driven Screening Strategy” (International Journal of Molecular Sciences, 2023).

Legend:
A(H1N1)pdm09 NS1 [1] = assay: IFN-β promoter luciferase screening of the diverse library (glow type); format: cell-based, A(H1N1)pdm09 influenza virus; conditions: HEK 293 cells; for increase of IFN-β promoter stimulation: 50 μM, 42 h treatment, glow luciferase, single experiment
NS1 = conditions: cited from earlier work
A(H1N1)pdm09 NS1 [2] = assay: Confirmation in the IFN-β luciferase system (flash type); format: cell-based, A(H1N1)pdm09 influenza virus; conditions: HEK 293 cells, 50 μM
[3] = tested on: IFN-β promoter luciferase reporter; format: cell-based, human
IFN-β mRNA = assay: qRT-PCR of IFN-β mRNA in infected A549 cells; format: cell-based, human; conditions: A/PR/8/34(H1N1)-infected A549 cells, 24 h p.i., normalized with GAPDH and HAU
RNase L mRNA = assay: qRT-PCR of RNase L mRNA in infected A549 cells; format: cell-based, human; conditions: A/PR/8/34(H1N1)-infected A549 cells, 24 h p.i., normalized with GAPDH and HAU
2′5′ OAS mRNA = assay: qRT-PCR of OAS mRNA in infected A549 cells; format: cell-based, human; conditions: A/PR/8/34(H1N1)-infected A549 cells, 24 h p.i., normalized with GAPDH and HAU
PKR mRNA = assay: qRT-PCR of PKR mRNA in infected A549 cells; format: cell-based, human; conditions: A/PR/8/34(H1N1)-infected A549 cells, 24 h p.i., normalized with GAPDH and HAU
[4] = tested on: influenza virus A/PR/8/34(H1N1); conditions: A549 cells; for reduction of viral replication: 50 µM, 3 h before infection, MOI 0.1, 24 h p.i., HAU
in vitro = conditions: human
Procedure: (§1) Cytotoxic concentration to cause death to 50% of viable cells (CC50) was calculated by neutral red uptake assay (NRU) assay [64]. In brief, 1 × 10^4 A549 cells were seeded in 96-well plates and exposed to different concentrations of cpds 157, 164 (25, 50, 100, 200, and 400 μM) or equivalent volumes of DMSO as a control for 48 h. At the end of the exposure time, cells were washed with phosphate-buffered saline (PBS) before being incubated for 3 h in a medium supplemented with neutral red (50 μg/mL). The medium was washed off rapidly with PBS, and cells were incubated for a further 15′ at R.T. in a mixture of 1% acetic acid and 50% ethanol to extract the dye. Absorbance was then measured at 540 nm using a micro-plate reader (Biorad). Neutral red powder was purchased from Sigma-Aldrich. The percentage of cell death for each compound concentration, compared to the corresponding DMSO amount in untreated controls (y-axis), was plotted against increasing cpd concentrations (x-axis). Data were transformed in log scale [x = log(x)], and a linear regression analysis was used to calculate the CC50 concentration.

[5] = tested on: influenza virus A/PR/8/34(H1N1); assay: microbe, parasite or virus in culture; conditions: unidentified influenza virus, A549, 24 h
A549 cells = conditions: human, 48 h
Procedure: as §1

O=C(NCCCc1ccccc1)c1ccccc1O [JJ3297, reference compound]
IFN-β promoter assay with the reference NS1 inhibitor (A(H1N1)pdm09 NS1 [1]; 5 μM): specificity of the IFN-β promoter assay was also confirmed | EC50 (NS1): 0.8 µM

O=C(N/N=C/c1ccc2c(c1)CCC2)c1ccccc1O [NSC125044]
EC50 (NS1): 8 µM

Nc1ccccc1C(=O)NCCCc1ccccc1 [A22]
EC50 (NS1): ~0.05 µM

CCc1ccc(NC(=O)COC(=O)c2ccc3ccccc3n2)cc1 [Compound 157]
increase of IFN-β promoter stimulation (A(H1N1)pdm09 NS1 [1]): at least 50% | restoration of the luciferase signal (A(H1N1)pdm09 NS1 [2]): significant restoration of the luciferase signal | non-specific activity on the reporter, alone or with IFN inducer, without NS1 [3]: without showing non-specific activities | fold increase in IFN-β mRNA accumulation (IFN-β mRNA): 2.7 fold | fold increase for RNase L (RNase L mRNA): 2.5 fold | fold increase for 2′5′ OAS (2′5′ OAS mRNA): 2.3 fold | fold increase for PKR (PKR mRNA): 4.5 fold | therapeutic index (CC50/IC50) [4]: > 7.8 | reduction of viral replication [4]: 50% | CC50 at 48 h (in vitro): > 400 µM | IC50 [5]: 51.6 µM

O=C(CSc1nnnn1-c1ccccc1)NCc1ccccc1 [Compound 164]
increase of IFN-β promoter stimulation (A(H1N1)pdm09 NS1 [1]): at least 50% | restoration of the luciferase signal (A(H1N1)pdm09 NS1 [2]): significant restoration of the luciferase signal | non-specific activity on the reporter, alone or with IFN inducer, without NS1 [3]: without showing non-specific activities | fold increase in IFN-β mRNA accumulation (IFN-β mRNA): 3.2 fold | fold increase for RNase L (RNase L mRNA): 2.3 fold | fold increase for 2′5′ OAS (2′5′ OAS mRNA): 1.7 fold | fold increase for PKR (PKR mRNA): 1.7 fold | therapeutic index (CC50/IC50) [4]: 3.6 | reduction of viral replication [4]: 60% | CC50 (A549 cells): 169 µM | CC50 at 48 h (in vitro): > 150 µM | IC50 [5]: 46.4 µM
